# Experimental data as given in patent publication US20120238488A1, “COMPOUNDS AND METHODS FOR TREATING NEOPLASIA” (priority 2009, published 2012).
# Columns and labels:
# SF295 (CNS) = assay: SRB assay, SF295; format: cell-based, human
# Description: (§1) SRB assays were performed according to standard National Cancer Institute Guidelines. Briefly, human tumor cells from different cancer panels were seeded into 96 well plates in 100 μL (plating densities ranging from 5-40,000 cells/well depending on the doubling time of individual cell lines) in serum-containing media for twenty-four hours prior to the addition of the compounds to be assayed. After 24 hours, one plate of each cell line was fixed in situ with trichloroacetic acid (TCA). The fixed slides were used to determine the cell population for each cell line at the time of drug addition (Tz). Each compound to be tested was solubilized in DMSO and the desired concentration was then added to the medium and diluted serially 1:10 to provide a total of five or ten drug concentrations plus control (in a final volume of 200 μL). The starting dose before any dilution was 100 uM for all compounds.
# (§2) Following drug addition, each culture was incubated for forty-eight hours. The assay was terminated with the addition of cold TCA. The supernatant was discarded, and the plates were washed with tap water and air dried. Sulforhodamine B (SRB) solution was then added to each well. After staining, the bound stain was solubilized and the absorbance was read on an automated plate reader at a wavelength of 515 nm.
# (§3) Using the absorbance measurements [time zero, (Tz), control growth, (C), and test growth in the presence of drug at the ten concentration levels (Ti)], the percentage growth was calculated at each of the drug concentrations levels. Percentage growth inhibition was calculated as:
# (§4) [(Ti−Tz)/(C−Tz)]×100 for concentrations for which Ti>/=Tz […]
# (§5) Three dose response parameters were calculated for each experimental agent. […] The drug concentration resulting in total growth inhibition (TGI) was calculated from Ti=Tz. […]
# (§6) Values were calculated for each of these three parameters when the level of activity was reached; however, if the effect was not reached or was exceeded, the value for that parameter was expressed as greater or less than the maximum or minimum concentration tested. […]
# [1] = system: membrane androgen receptor; assay: Membrane androgen receptor competition assay, LNCaP cells; format: binding; conditions: 40 μM compound 30 minutes before 40 μM testosterone-HSA-FITC, FIG. 3A
# Description: After a 24 hour serum starvation period, cells were incubated with 40 μM testosterone-HSA-FITC for 1 hour at room temperature. […] Human serum albumin-FITC was used as a control for background staining. After permeabilization with ice-cold acetone for 4 minutes at room temperature, cell nuclei were stained with DAPI. Coverslips were mounted on slides by using the Slow Fade/Antifade Reagent (Molecular Probes) and studied under a LEICA DMLB microscope, equipped with the appropriate fluorescence filters and a Leica DC 300F camera. Specimens were analyzed using the Leica FW4000 computer program.
# To determine the capacity of a given compound to preclude binding of fluorescent testosterone-HSA conjugates (TAC) to the membrane androgen receptor, starved LNCaP or DU145 cells on coverslips prepared as described above were pre-treated with 40 μM of the indicated compound for 30 minutes prior to the addition of testosterone-HSA-FITC. At the end of the incubation period, cells were washed twice with PBS and 40 μM of testosterone-HSA-FITC was added. Specimens were prepared and analyzed as described above.
# UAC032 (Melanoma) = assay: SRB assay, UAC032; format: cell-based, human; conditions: 48 h
# Description: as §1, §2, §3, §4, §5, §6
# T470 (Breast) = assay: SRB assay, T470; format: cell-based, human; conditions: 48 h
# Description: as §1, §2, §3, §4, §5, §6
structure (smiles),measurement,setting,value
"C[C@]12CCC(=NOCCN)C=C1CCC1C2CC[C@]2(C)C(=O)CCC12 (stereo partly drawn) [Compound 12, (10R,13S)-3-(2-aminoethoxyimino)-10,13-dimethyl-2,3,7,8,9,10,11,12,13,14,15,16-dodecahydro-1H-cyclopenta[a]phenanthren-17(6H)-one]",CC50,"SF295 (CNS); Homo sapiens, SF-295, 48 h, read-out: LC50",9.04 µM
same,GI50,"SF295 (CNS); Homo sapiens, SF-295, SF295, SRB, 48 h",3.26 µM
same,TGI,"SF295 (CNS); SF295, SRB, 48 h",6.15 µM
same,membrane fluorescence of TAC-FITC after pre-treatment (binding to mAR precluded),[1],devoid of membrane fluorescence
same,CC50,"UAC032 (Melanoma); Homo sapiens, read-out: LC50",49.5 µM
same,GI50,"UAC032 (Melanoma); Homo sapiens, UAC032, SRB",4.57 µM
same,TGI,"UAC032 (Melanoma); UAC032, SRB",7.64 µM
same,CC50,"T470 (Breast); Homo sapiens, read-out: LC50",69.6 µM
same,GI50,"T470 (Breast); Homo sapiens, T470, SRB",5.98 µM
same,TGI,"T470 (Breast); T470, SRB",26.42 µM
